Ends that are not written are not given here.
T1: αENaC (Homo sapiens, UniProt P37088)
T1 sequence (P37088 1-669): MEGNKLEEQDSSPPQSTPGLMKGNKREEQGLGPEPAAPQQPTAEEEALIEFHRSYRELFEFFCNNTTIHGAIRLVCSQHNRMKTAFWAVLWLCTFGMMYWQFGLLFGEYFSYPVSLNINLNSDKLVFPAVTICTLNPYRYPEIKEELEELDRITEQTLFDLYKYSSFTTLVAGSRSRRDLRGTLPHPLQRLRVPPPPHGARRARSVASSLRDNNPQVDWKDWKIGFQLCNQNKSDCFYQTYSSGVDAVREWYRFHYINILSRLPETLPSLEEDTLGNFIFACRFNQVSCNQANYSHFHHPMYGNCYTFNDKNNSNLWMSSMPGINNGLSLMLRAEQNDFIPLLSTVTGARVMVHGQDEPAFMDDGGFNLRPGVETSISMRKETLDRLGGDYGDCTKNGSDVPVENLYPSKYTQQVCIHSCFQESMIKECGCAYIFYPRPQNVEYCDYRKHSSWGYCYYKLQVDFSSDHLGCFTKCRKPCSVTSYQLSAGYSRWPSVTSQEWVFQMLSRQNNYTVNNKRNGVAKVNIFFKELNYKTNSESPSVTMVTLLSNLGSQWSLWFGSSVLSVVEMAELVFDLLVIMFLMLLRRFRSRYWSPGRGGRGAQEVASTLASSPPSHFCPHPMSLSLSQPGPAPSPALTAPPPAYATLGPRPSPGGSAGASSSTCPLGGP

T2: neutrophil elastase (Homo sapiens, UniProt P08246)
T2 sequence (P08246 30-267): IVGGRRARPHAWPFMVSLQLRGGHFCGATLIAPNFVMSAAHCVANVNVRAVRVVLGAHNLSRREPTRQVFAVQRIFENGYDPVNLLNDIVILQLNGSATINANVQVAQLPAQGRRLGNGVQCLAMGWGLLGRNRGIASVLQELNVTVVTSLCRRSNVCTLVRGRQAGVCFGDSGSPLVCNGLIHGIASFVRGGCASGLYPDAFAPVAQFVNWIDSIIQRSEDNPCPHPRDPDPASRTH

B1: SPLUNC1: human SPLUNC1 (SEQ ID NO:1), 256 amino acid secreted PLUNC family protein; rSPLUNC1 is the purified V5/6His-tagged recombinant form (protein, listed as Homo sapiens)
chain: MFQTGGLIVFYGLLAQTMAQFGGLPVPLDQTLPLNVNPALPLSPTGLAGSLTNALSNGLLSGGLLGILENLPLLDILKPGGGTSGGLLGGLLGKVTSVIPGLNNIIDIKVTDPQLLELGLVQSPDGHRLYVTIPLGIKLQVNTPLVGASLLRLAVKLDITAEILAVRDKQERIHLVLGDCTHSPGSLQISLLDGLGPLPIQGLLDSLTGILNKVLPELVQGNVCPLVNEVLRGLDITLVHDIVNMLIHGLQFVIKV
modifications: V5/6His tag in recombinant form
notes: rSPLUNC1 is the purified V5/6His-tagged recombinant form

What was measured:
[1] = target: T3, βENaC-eGFP (Homo sapiens, UniProt P51168); assay: Confocal imaging of βENaC-eGFP internalization in HEK cells; format: cell-based; conditions: 1 h after 100 μM S18
T3 construct: expressed in transfected cells; host or cells: HEK cells
Text: Ai, cartoon of αENaC-eGFP and βENaC-mCherry under basal conditions (γENaC not shown). Aii We hypothesize that S18 binding to the extracellular loop of βENaC (1) induces a conformational change in ENaC which is reflected as altered intracellular FRET (2). This change may facilitate NEDD4-2-induced ubiquitination (3), leading to internalization of αβγENaC (4). […] In contrast, exposure to aprotinin had no effect. All n=8-10. C, Typical confocal images of HEK cells expressing αγENaC and βENaC-eGFP before and 1 h after 100 μM S18. Cell outlines are traced in white.
Since ENaC is regulated by NEDD4-2 binding to its C-termini, which leads to ubiquitination of its N-termini and internalization, we propose that S18 causes a conformational change in ENaC, leading to increased ubiquitination followed by internalization (FIG. 21A). As a first step towards understanding the mechanism of action of SPLUNC1, we performed FRET on fluorescently tagged ENaCs. […] Furthermore, βENaC-eGFP internalized upon S18 binding (FIG. 21C), consistent with our surface biotinylation data from oocytes.

[2] = target: T1, αENaC; assay: Biotinylated peptide pull-down of ENaC subunits from HEK293T cells; format: binding; parameters: expressed in transfected cells; host or cells: HEK293T cells (lysate); conditions: subunits individually expressed
Procedure: HEK293T cells were transfected with double-tagged human ENaC subunits with HA and V5 epitopes at the N- and C-termini, respectively, in combination with wild-type untagged subunit cDNA. When all three ENaC subunits were expressed, 0.5 μg of each subunit were transfected per well. When expressed individually, 0.75 μg of the subunit were transfected per well. The transfected cells were lysed 24 h later using NP-40 buffer with 1× complete EDTA-free protease inhibitor (Roche, Basel, Switzerland). The lysate was centrifuged at 16,300×g for 15 minutes at 4° C. and the supernatant collected. Protein concentration was determined using the BCA assay and 500 μg of protein plus 0.25 mg peptide and 100 μL of neutravidin were added to a spin column and rotated end-over-end at 4° C. for 24 h (all ThermoFisher Scientific, Rockford, Ill., USA). Flow-through was collected by centrifugation at 1000×g for 30 s. […] The membrane was probed using 1:1000 anti-V5 antibody (Invitrogen, Carlsbad, Calif., USA) overnight at 4° C. in 3% fish gelatin in TBS-T. The blot was then incubated for 1 h at room temperature with an ECL sheep anti-mouse IgG secondary antibody and detected by ECL reagent (ThermoFisher Scientific, Waltham, Mass., USA) or by incubation with a goat anti-mouse IRDye secondary antibody and analyzed by an Odyssey infrared imaging system (LI-COR Biosciences, Lincoln, Nebr., USA).

[3] = tested on: serine proteases; assay: Endogenous protease activity (BGAR-MCA cleavage) on mucosal surface of human bronchial epithelial cultures; format: cell-based
Procedure: For cell-free assays, reactions were carried out in 50 μl Ringer in a 96 well plate format with 100 μM BGAR-MCA. To measure endogenous protease activity in human bronchial epithelial cultures, 30 μl Ringer with 100 μM BGAR-MCA were placed directly onto the mucosal surfaces of human bronchial epithelial cultures grown on 12 mm T-clear inserts and the cultures were assayed in 12 well plates.

[4] = target: T2, neutrophil elastase; assay: Cleavage of SPLUNC1 by neutrophil elastase at pH 6 vs 7.4; conditions: 10 μM SPLUNC1, 100 nM neutrophil elastase
Procedure: A, Neutrophil elastase activity is moderately greater at pH 6 than at pH 7.4. B, Coomassie-stained gel showing 10 μM SPLUNC1 exposed to 100 nM Neutrophil elastase at pH 6 and 7.4. The reaction was stopped at timed intervals.
Based on SPLUNC1 but not S18's pH-sensitivity (FIGS. 25B and 25C), we hypothesized that SPLUNC1 undergoes a conformational change, and binds to itself at pH 6. To test this, we exposed SPLUNC1 to neutrophil elastase at pH 6 vs. 7.4 (FIG. 26). […] This is consistent with our hypothesis that less SPLUNC1 is exposed at low pH.

T3 sequence (P51168 whole entry, one chain of several): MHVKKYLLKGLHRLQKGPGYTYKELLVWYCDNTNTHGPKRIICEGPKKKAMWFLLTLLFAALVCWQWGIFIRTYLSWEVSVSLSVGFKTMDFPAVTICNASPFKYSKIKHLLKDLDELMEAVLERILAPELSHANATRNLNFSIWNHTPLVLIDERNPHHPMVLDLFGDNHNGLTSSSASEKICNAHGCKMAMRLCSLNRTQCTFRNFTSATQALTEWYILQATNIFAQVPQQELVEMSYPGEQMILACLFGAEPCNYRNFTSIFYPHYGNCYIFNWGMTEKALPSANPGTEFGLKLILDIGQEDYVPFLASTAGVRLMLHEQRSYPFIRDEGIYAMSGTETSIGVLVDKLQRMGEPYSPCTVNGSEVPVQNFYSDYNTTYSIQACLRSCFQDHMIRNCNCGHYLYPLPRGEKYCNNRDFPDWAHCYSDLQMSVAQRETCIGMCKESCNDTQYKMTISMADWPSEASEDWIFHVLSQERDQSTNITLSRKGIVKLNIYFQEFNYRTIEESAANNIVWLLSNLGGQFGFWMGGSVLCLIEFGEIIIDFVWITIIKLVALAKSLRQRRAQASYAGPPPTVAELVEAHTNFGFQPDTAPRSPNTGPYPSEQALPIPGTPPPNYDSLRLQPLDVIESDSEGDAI
T3 sequence (P51170 whole entry partner, one chain of several): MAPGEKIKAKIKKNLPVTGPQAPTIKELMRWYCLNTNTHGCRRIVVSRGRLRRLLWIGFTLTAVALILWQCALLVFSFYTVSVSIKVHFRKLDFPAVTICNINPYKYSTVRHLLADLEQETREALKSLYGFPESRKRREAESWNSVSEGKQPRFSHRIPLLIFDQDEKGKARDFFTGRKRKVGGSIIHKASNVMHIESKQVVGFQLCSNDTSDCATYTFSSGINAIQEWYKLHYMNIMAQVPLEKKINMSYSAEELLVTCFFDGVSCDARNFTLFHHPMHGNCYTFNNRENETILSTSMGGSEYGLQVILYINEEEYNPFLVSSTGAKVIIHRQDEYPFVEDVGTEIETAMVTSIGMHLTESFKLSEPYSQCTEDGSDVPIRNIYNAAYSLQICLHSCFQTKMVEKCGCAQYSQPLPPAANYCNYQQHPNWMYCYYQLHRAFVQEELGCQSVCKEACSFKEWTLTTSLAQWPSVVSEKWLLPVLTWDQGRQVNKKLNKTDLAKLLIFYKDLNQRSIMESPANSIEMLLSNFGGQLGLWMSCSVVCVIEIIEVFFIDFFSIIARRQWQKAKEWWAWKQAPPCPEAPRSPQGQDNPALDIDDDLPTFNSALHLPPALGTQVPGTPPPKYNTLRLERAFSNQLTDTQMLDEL

Molecule | βENaC-eGFP internalization [1] | binding to αENaC (pull-down) [2] | BGAR-MCA cleavage on human bronchial epithelial mucosal surfaces [3] | cleavage by neutrophil elastase at pH 6 [4]
GGLPVPLDQTLPLNVNPA [S18] | internalized | without any detectable binding |  | 
B1 |  |  | no significant affect | resistant to cleavage

Source: US9127040B2, “Regulation of sodium channels by PLUNC proteins” (The University of North Carolina at Chapel Hill, priority 2011, dated 2015)
